This note sets out measurements from ChEMBL document CHEMBL6092168, “Identification of novel indolinone derivatives as CTSC inhibitors to treat inflammatory bowel disease by modulating inflammatory factors” (Eur J Med Chem, 2024).

Active and inactive are the calls of the source. The rule behind the calls is not given here.

The subject of series [1] is Mus musculus. Nature of the series: Anti-inflammatory activity in DSS-induced ulcerative colitis male C57BL/6 mouse model assessed as reduction in proteinase 3 level in colon at 15 to 30 mg/kg administered via gavage for 10 days. The series is classed as functional, organism-based. Conditions: dose 15-30 mg/kg, time 10.0 day.
Series [2] concerns RAW264.7. The series can be described thus: Anti-inflammatory activity in mouse RAW264.7 cells assessed as inhibition of LPS-induced TNF-alpha production at 5 uM preincubated for 1 hr followed by LPS addition and measured after 24 hrs by ELISA relative to control. The series is classed as functional. Details: scale not given: the % may be the effect or the level left. The settings on record: time 25 hrs. Background: ELISA stands for enzyme-linked immunosorbent assay.

Series [3] relates to Mus musculus. Nature of the series: Anti-inflammatory activity in DSS-induced ulcerative colitis male C57BL/6 mouse model assessed as reduction in proteinase 3 level in serum at 60 mg/kg administered via gavage for 10 days relative to control. The series is classed as functional. Also noted: scale not given: the % may be the effect or the level left.
Series [4] concerns the target T1, Dipeptidyl peptidase 1 (Mus musculus) (UniProt P97821).
T1 sequence (whole entry): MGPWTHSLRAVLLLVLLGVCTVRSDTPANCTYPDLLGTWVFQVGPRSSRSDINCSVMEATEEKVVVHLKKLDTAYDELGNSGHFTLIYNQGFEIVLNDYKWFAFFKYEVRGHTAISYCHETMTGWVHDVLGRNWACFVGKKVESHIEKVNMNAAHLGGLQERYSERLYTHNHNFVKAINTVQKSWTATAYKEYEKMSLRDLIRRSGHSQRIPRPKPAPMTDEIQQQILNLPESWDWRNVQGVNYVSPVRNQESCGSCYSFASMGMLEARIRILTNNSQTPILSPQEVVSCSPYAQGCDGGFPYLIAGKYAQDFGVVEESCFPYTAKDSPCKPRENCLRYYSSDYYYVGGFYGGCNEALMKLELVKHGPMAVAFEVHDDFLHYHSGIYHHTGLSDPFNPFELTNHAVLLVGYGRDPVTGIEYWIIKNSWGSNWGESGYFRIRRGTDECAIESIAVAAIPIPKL
The series can be described thus: In vivo inhibition of Cathepsin C in C57BL/6 mouse assessed as reduction in cathepsin C activity in bone marrow at 15 mg/kg, po administered once daily for 6 days by fluorescence based microplate reader relative to control. The series is classed as functional, organism-based. Conditions: time 6.0 day.

Series [5] has as its system Mus musculus. Nature of the series: Anti-inflammatory activity in DSS-induced ulcerative colitis male C57BL/6 mouse model assessed as reduction in Cathepsin C level in colon at 60 mg/kg administered via gavage for 10 days. The format is functional. Details: scale not given: the % may be the effect or the level left. The settings on record: time 10 day.
The target of series [6] is T2, Neutrophil elastase (Mus musculus) (UniProt Q3UP87).
T2 sequence (whole entry): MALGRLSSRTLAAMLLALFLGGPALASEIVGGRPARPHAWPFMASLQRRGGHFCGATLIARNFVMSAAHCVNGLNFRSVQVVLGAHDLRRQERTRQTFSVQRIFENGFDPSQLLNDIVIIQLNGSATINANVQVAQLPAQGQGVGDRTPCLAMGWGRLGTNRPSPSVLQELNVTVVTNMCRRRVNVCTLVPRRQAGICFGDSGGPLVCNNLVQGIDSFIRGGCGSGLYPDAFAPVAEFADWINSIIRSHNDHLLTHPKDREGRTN
The series can be described thus: In vivo inhibition of neutrophil elastase in C57BL/6 mouse assessed as reduction in neutrophil elastase activity in bone marrow administered orally once daily for 6 days by fluorescence based microplate reader. The format is functional, organism-based. The settings on record: dose 5-30 mg/kg, route po, time 6.0 day.

In series [7] the test system is Mus musculus. The series can be described thus: Anti-inflammatory activity in DSS-induced ulcerative colitis male C57BL/6 mouse model assessed as reduction in GM-CSF expression in serum administered via gavage for 10 days by ELISA. The format is functional, organism-based. Conditions: dose 15-60 mg/kg, time 10.0 day.
Series [8] can be described thus: Oral bioavailability in male Sprague-Dawley rat at 10 mg/kg measured at 5 to 1440 mins by LC-MS/MS analysis. Conditions: in vivo, time 5-1440 min. The series is classed as ADME, organism-based.
Series [9] deals with Mus musculus. Nature of the series: Anti-inflammatory activity in DSS-induced ulcerative colitis male C57BL/6 mouse model assessed as increase in colon length at 60 mg/kg administered via gavage for 10 days. The format is functional, organism-based. Conditions: time 10.0 day.
The test system of series [10] is Mus musculus. Nature of the series: Anti-inflammatory activity in DSS-induced ulcerative colitis male C57BL/6 mouse model assessed as reduction in cathepsin G level in serum at 15 to 30 mg/kg administered via gavage for 10 days. The series is classed as functional, organism-based. The settings on record: dose 15-30 mg/kg, time 10.0 day.
Series [11] concerns Mus musculus. Nature of the series: Anti-inflammatory activity in DSS-induced ulcerative colitis male C57BL/6 mouse model assessed as reduction in neutrophil elastase level in colon at 60 mg/kg administered via gavage for 10 days relative to control. Details: scale not given: the % may be the effect or the level left. Conditions: time 10 day. The format is functional.
A short description of series [12]: Acute toxicity in ICR mouse assessed as change in white blood cell count in bone marrow at 1500 mg/kg, po administered daily for 7 days. The series is classed as organism-based. The settings on record: in vivo, 168 h, time 7 day.
In series [13] the test system is Mus musculus. The series can be described thus: Anti-inflammatory activity in DSS-induced ulcerative colitis male C57BL/6 mouse model assessed as increase in IL-10 expression in serum administered via gavage for 10 days by ELISA. The settings on record: dose 15-60 mg/kg, time 10.0 day. The format is functional, organism-based.
For series [14], the system named is Mus musculus. The series can be described thus: Anti-inflammatory activity in DSS-induced ulcerative colitis male C57BL/6 mouse model assessed as increase in colon length administered via gavage for 10 days. The series is classed as functional, organism-based. Conditions: dose 15-60 mg/kg, time 10.0 day.
The nature of series [15]: Acute toxicity in ICR mouse assessed as spleen pathological change at 1500 mg/kg, po administered daily for 7 days by H and E staining based analysis. The series is classed as organism-based. The settings on record: in vivo, 168 h, time 7 day.
The target of series [16] is T3, Myeloblastin (Mus musculus) (UniProt Q61096).
T3 sequence (whole entry): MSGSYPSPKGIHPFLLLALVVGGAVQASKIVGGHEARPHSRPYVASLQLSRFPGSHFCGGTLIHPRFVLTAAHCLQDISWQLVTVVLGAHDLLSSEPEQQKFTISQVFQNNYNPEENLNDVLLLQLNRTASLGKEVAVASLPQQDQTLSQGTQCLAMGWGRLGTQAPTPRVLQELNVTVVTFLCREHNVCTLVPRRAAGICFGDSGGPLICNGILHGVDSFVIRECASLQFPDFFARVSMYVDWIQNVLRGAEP
The series can be described thus: In vivo inhibition of proteinase 3 in C57BL/6 mouse assessed as reduction in proteinase 3 activity in blood administered orally once daily for 6 days by fluorescence based microplate reader. The series is classed as functional, organism-based. Conditions: dose 5-30 mg/kg, route po, time 6.0 day.

For series [17], the system named is Mus musculus. The series can be described thus: Anti-inflammatory activity in DSS-induced ulcerative colitis male C57BL/6 mouse model assessed as reduction in neutrophil elastase level in serum at 15 to 30 mg/kg administered via gavage for 10 days. The series is classed as functional, organism-based. The settings on record: dose 15-30 mg/kg, time 10.0 day.
Series [18] has as its target T2, Neutrophil elastase (Mus musculus). The series can be described thus: In vivo inhibition of neutrophil elastase in C57BL/6 mouse assessed as reduction in neutrophil elastase activity in bone marrow at 30 mg/kg, po administered once daily for 6 days by fluorescence based microplate reader relative to control. The series is classed as functional, organism-based. The settings on record: time 6.0 day.

Series [19] concerns RAW264.7. Nature of the series: Anti-inflammatory activity in LPS-stimulated mouse RAW264.7 cells assessed as reduction in IL-6 production incubated for 24 hrs by ELISA. The format is functional, cell-based. The settings on record: dose 0.62-5 µM.
A short description of series [20]: MRT in male Sprague-Dawley rat at 10 mg/kg, po measured at 5 to 1440 mins by LC-MS/MS analysis. The series is classed as ADME, organism-based. The settings on record: in vivo, time 5-1440 min.
For series [21], the system named is Mus musculus. The series can be described thus: Anti-inflammatory activity in DSS-induced ulcerative colitis male C57BL/6 mouse model assessed as reduction in proteinase 3 level in serum at 15 to 30 mg/kg administered via gavage for 10 days. The series is classed as functional, organism-based. Conditions: dose 15-30 mg/kg, time 10.0 day.
Series [22] relates to Mus musculus. Nature of the series: Anti-inflammatory activity in DSS-induced ulcerative colitis male C57BL/6 mouse model assessed as reduction in TNF-alpha expression in colon administered via gavage for 10 days by ELISA. The series is classed as functional, organism-based. Conditions: dose 15-60 mg/kg, time 10.0 day.

By inhibition is commonly meant the change of the read-out against control, counted positive when it falls. In general, MRT refers to a mean duration of stay, worked out from the concentration-time curve.

As to `O=C1Nc2c(cccc2-c2ccc(NC3CCOCC3)cc2)/C1=C/c1ccnc2ccccc12`, the outcome with Mus musculus [1], with Mus musculus [10], with Mus musculus [17] and in the series on Mus musculus [21] was inactive. Besides, the Activity was 83.6% in the series on RAW264.7 [2]; 54% in the series on Mus musculus [3] (time 10 day); 45% in the series on Mus musculus [5]; “Dose-dependent-effect; Significant Reduction Observed In High Dose Group” with Mus musculus [7]; “Active; Significantly More Effective Than In Mesalazine Treatment Group” in the series with Mus musculus [9]; 50% with Mus musculus [11]. The Activity result in series [12] is “Non-toxic”; in the series with Mus musculus [13] it was “Dose-dependent-effect; Significant Increase Observed In High Dose Group”; in the series with Mus musculus [14], “Dose-dependent-effect”; in [15] it was “Non-toxic”; in the series with RAW264.7 [19], “Dose-dependent-effect”. Also, the result in the series with Mus musculus [3] (time 10.0 day) and with Mus musculus [22] was Active. The inhibition in series [4] was under 50%; in series [6] it was “Dose-dependent-effect”; in [16] it was “Dose-dependent-effect”; in [18], 59.1%. This compound showed a F in [8] of 29.05%. The compound also came in with an MRT in series [20] of 2.98 h.
